# Source: PubChem BioAssay (NCI)
#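 1) Cells in 96-well plates. 2) Compound, 48 h, 5 concentrations. 3) Linear interpolation between surrounding doses. 4) Unreached endpoint = highest concentration. At the TGI there is no net growth.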
# Columns and labels:
# Assay in all cases: inhibition of tumour cell growth, NCI panel, 48 h
# [1] = test system: SR leukemia
# [2] = test system: MCF7 breast
# [3] = test system: UO-31 renal
# [4] = test system: MDA-MB-231 breast
# [5] = test system: TK-10 renal
# [6] = test system: A498 renal
# [7] = test system: MOLT-4 leukemia
# [8] = test system: UACC-62 melanoma
# [9] = test system: LOX IMVI melanoma
# [10] = test system: SK-MEL-2 melanoma
# [11] = test system: SF-268 CNS
# [12] = test system: HCT-116 colon
# [13] = test system: ACHN renal
# [14] = test system: HCC-2998 colon
# [15] = test system: HOP-62 NSCLC
# [16] = test system: BT-549 breast
# [17] = test system: DU-145 prostate
# [18] = test system: SK-MEL-28 melanoma
# [19] = test system: SW-620 colon
# [20] = test system: HS 578T breast
# [21] = test system: OVCAR-4 ovarian
# [22] = test system: SF-539 CNS
# [23] = test system: A549 NSCLC
# [24] = test system: NCI-H23 lung
# [25] = test system: EKVX NSCLC
# [26] = test system: SNB-19 CNS
# [27] = test system: NCI-H522 lung
# [28] = test system: M14 melanoma
# [29] = test system: OVCAR-8 ovarian
# [30] = test system: NCI-H226 lung
# [31] = test system: HT29 colon
# [32] = test system: RPMI-8226 leukemia
# [33] = test system: NCI/ADR-RES ovarian
# [34] = test system: SNB-75 CNS
# [35] = test system: SK-MEL-5 melanoma
# [36] = test system: OVCAR-5 ovarian
# [37] = test system: SK-OV-3 ovarian
# [38] = test system: MDA-MB-435
# [39] = test system: MALME-3M melanoma
# [40] = test system: RXF 393 renal
# [41] = test system: HL-60(TB) leukemia
# [42] = test system: 786-0 renal
# [43] = test system: CAKI-1 renal
# [44] = test system: T-47D breast
# [45] = test system: PC-3 prostate
# [46] = test system: K-562 leukemia
# [47] = test system: HOP-92 NSCLC
# [48] = test system: SF-295 CNS
# [49] = test system: IGROV1 ovarian
# [50] = test system: U251 CNS
# [51] = test system: NCI-H460 lung
# [52] = test system: COLO 205 colon
# [53] = test system: SN12C renal
structure (smiles),measurement,setting,value
COc1cccc(-c2cc(=O)c3ccc(C)nc3[nH]2)c1,TGI,[1],50.3 nM
same,TGI,[2],> 22.9 µM
same,TGI,[3],> 100 µM
same,TGI,[4],> 100 µM
same,TGI,[5],> 100 µM
same,TGI,[6],2340 nM
same,TGI,[7],> 94.7 µM
same,TGI,[8],> 100 µM
same,TGI,[9],> 100 µM
same,TGI,[10],> 100 µM
same,TGI,[11],> 89.7 µM
same,TGI,[12],> 38.1 µM
same,TGI,[13],> 100 µM
same,TGI,[14],2120 nM
same,TGI,[15],> 64.6 µM
same,TGI,[16],> 39.7 µM
same,TGI,[17],3.7 µM
same,TGI,[18],> 100 µM
same,TGI,[19],> 100 µM
same,TGI,[20],> 100 µM
same,TGI,[21],> 100 µM
same,TGI,[22],921 nM
same,TGI,[23],> 100 µM
same,TGI,[24],> 100 µM
same,TGI,[25],> 100 µM
same,TGI,[26],> 100 µM
same,TGI,[27],> 100 µM
same,TGI,[28],> 100 µM
same,TGI,[29],> 100 µM
same,TGI,[30],291 nM
same,TGI,[31],> 100 µM
same,TGI,[32],1780 nM
same,TGI,[33],> 100 µM
same,TGI,[34],49.6 nM
same,TGI,[35],2470 nM
same,TGI,[36],> 100 µM
same,TGI,[37],> 60.6 µM
same,TGI,[38],33.5 nM
same,TGI,[39],> 100 µM
same,TGI,[40],> 100 µM
same,TGI,[41],53.2 nM
same,TGI,[42],> 100 µM
same,TGI,[43],> 81.8 µM
same,TGI,[44],> 100 µM
same,TGI,[45],> 42 µM
same,TGI,[46],65.6 nM
same,TGI,[47],3.85 µM
same,TGI,[48],> 100 µM
same,TGI,[49],> 95.1 µM
same,TGI,[50],> 100 µM
same,TGI,[51],> 100 µM
same,TGI,[52],247 nM
same,TGI,[53],> 100 µM
